Data taken from patent US20220090023A1, “METHODS FOR REGULATING POTENCY OF PLURIPOTENT STEM CELLS AND APPLICATIONS THEREOF” (ACADEMIA SINICA, priority 2018, published 2022).
Read-outs that look alike come from different tables or passages of the source.

Tests used:
Format in all cases: cell-based, human
IMR-90 = test: IC50 analyses of three inhibitors of cell growth, IMR-90
Description: (§1) To check the functional roles of cholesterol on pluripotency, cholesterol inhibitor simvastatin, AY9944, Methyl-β-cyclodextrin (MBCD) were used to inhibit cholesterol biosynthesis (FIG. 4A). […] HMGCR is the rate-limiting enzyme of cholesterol biosynthesis. The side effects of statin are few and no cytotoxic side effects in human has been reported. AY9944 inhibits Δ7-dehydrocholesterol reductase (DHCR7), and decrease levels of cholesterol (Wassila Gaoua, 2000). Methyl-β-cyclodextrin (MBCD) directly deprived cellular cholesterol (Mahammad and Parmryd, 2015) (FIG. 4A). […] Next, we would like to know whether PSCs are more rely on cholesterol pathway. Thus, we compared the sensitivities of three cholesterol inhibitors in PSCs and three somatic fibroblast cells. Primary human foreskin fibroblasts (CRL-2097), a human foreskin fibroblast cell line (BJ-5Ta), and a fetal lung fibroblast cell line (IMR-90) were used for comparison.

hNSC = test: IC50 analyses of three inhibitors of cell growth, hNSC; details: for IC50: hNSC, inhibitors for 3 days; for hPSCs more sensitive than human neural stem cells (hNSCs): hNSCs vs hPSCs
Experimental: (§2) Human BMMSCs (Lonza) were cultured in MSC NutriStem XF Medium (Defined, xeno-free, serum-free medium) and grown on Corning CellBIND Surface plates with inhibitor treatments for 3 days. Human neural stem cells (NSCs) were differentiated from H9 hESCs with Gibco PSC Neural Induction Medium (serum-free medium) for 7 days. And the NSCs were replated on matrigel-coated plate and supplied with each inhibitors for 3 days.
as §1

CRL-2097 = test: IC50 analyses of three inhibitors of cell growth, CRL-2097; details: for IC50 higher in primary fibroblasts than HUES6: primary fibroblasts vs HUES6
Description: as §1

H9 = test: IC50 analyses of three inhibitors of cell growth, H9
Experimental: (§3) For feeder-free experiments, cells were cultured in a chemically defined medium (Essential 8 medium).
(§4) hESCs were cultured with Essential 8 medium (Thermo Fisher, A1517001) which containing 15% Alamar blue at 37° C. for 5 hours. The activities were calculated by measuring absorbance at 570 nm and 600 nm. To count the cell numbers with trypan blue assay, cells were treated with trypsin and the suspended cells were mixed 0.2% trypan blue (1:1) and counted with a hemocytometer.
as §1, with “Primary human foreskin fibroblasts (CRL-2097), a human foreskin fibroblast cell line (BJ-5Ta), and a fetal lung fibroblast cell line (IMR-90) were used for comparison.” left out

HUES6 = test: IC50 analyses of three inhibitors of cell growth, HUES6
Experimental: as §3, §4
as §1, with “Primary human foreskin fibroblasts (CRL-2097), a human foreskin fibroblast cell line (BJ-5Ta), and a fetal lung fibroblast cell line (IMR-90) were used for comparison.” left out

hBMSC = test: IC50 analyses of three inhibitors of cell growth, hBMSC; details: for IC50: hBMSC, inhibitor treatments for 3 days; for hPSCs more sensitive than human bone marrow mesenchymal stem cells (hBMMSCs): hBMMSCs vs hPSCs
Experimental: as §2, §1

BJ-5Ta = test: IC50 analyses of three inhibitors of cell growth, BJ-5Ta
Description: as §1

[1] = test system: PODXL downregulated HUES6 hESCs; test: Cholesterol rescue in PODXL knockdown hESCs (Alamar blue, ALP activity); details: cholesterol addition for 4 days
Experimental: (§5) FIGS. 5A-5B. Cholesterol addition rescue hESC renewal in PODXL knockdown cells. […] Quantification of Annexin V/PI-positive cells was executed in triplicates (bottom left panel). P-values were calculated by performing one-way ANOVA against the shRFP hESCs (*p<0.05, **p<0.01, ***p<0.001). (Bottom right panel) Cholesterol restores the c-MYC/TERT expressions decrease by the expression of shPODXL. Western Blots were executed in PODXL knockdown HUES6 hESCs with the addition of cholesterol for 4 days.
as §4
Alkaline phosphatase (ALP) activities were calculated by adding the substrate of ALP, p-nitrophenyl phosphate (pNPP) (N7653, sigma), in the culture medium. The plate were incubated at 37° C. less than 5 minutes, then the absorbance was measured at 405 nm. For Alkaline phosphatase (ALP) staining, hPSCs were first washed with PBS and used 4% formaldehyde as a fixative. After fixing for 3 minutes, the cells were washed with 1×PBS and were stained by ALP staining reagent (Sigma). Then the cells were further washed by PBS. […]

PODXL knockdown hESCs = test: Annexin V/PI apoptosis in PODXL knockdown hESCs with cholesterol; details: PODXL knockdown for six days
Experimental: as §5
hESCs were dissociated by accutase. The cells were stained according to manufactures' instructions (eBioscience, 88-8005-72). In brief, cells (5×10^5) were suspended at in 100 μl 1× binding buffer, and then stained with 2.5 μl of Annexin V-FITC. After reaction for 20 min at room temperature, the cells were incubated with 2.5 μl of PI solution for 10 min. Then the cells were diluted with PBS and analyzed with a flow cytometer.
To examine if cholesterol is the major downstream of PODXL, rescue experiment with cholesterol was performed.

[2] = test system: c-MYC, TERT, HMGCR, PODXL, TRA-1-60; test: Western blot in PODXL knockdown hESCs with cholesterol; details: PODXL downregulated cells, cholesterol for 4 days
Experimental: as §5
Whole-cell protein extracts were purified from hPSCs or using RIPA lysis buffer (1% NP40, 50 mM Tris, pH 8.0, 150 mM NaCl, 2 mM EDTA) with the presence of protease inhibitor cocktail (Roche, 04693132001). Protein concentration was quantified by Bio-Rad Bradford Protein Assay. Equal amounts of protein were subjected to a 10% SDS-PAGE gel and blotted onto 0.22 um PVDF membrane (Millipore, ISEQ00010). Blots were blocked in 5% BSA/TBST at room temperature for 1 hr. The blots were incubated with the primary antibodies in 5% BSA/TBST at 4° C. overnight. […]

CRL2097 = test: iPSC reprogramming efficiency with cholesterol (alkaline phosphatase assay); details: with OSKM 4 factors
Experimental: FIG. 6. The addition of cholesterol promote the iPSCs reprogramming efficiency. CRL2097 (passage 9) were seeded and infected with lentivirual vector (OSKM) with final concentration of cholesterol (0, 0.5×, 1×, 2×, 5×, 8×) which was diluted from 500× concentrated SyntheChol® NSO Supplement (S5442, Sigma). Alkaline phosphatase assay was performed to assay the reprogramming efficiency.
CRL2097 (passage 9) were seeded and infected with lentivirual vector (OSKM) with final concentration of cholesterol (0, 0.5×, 1×, 2×, 5×, 8×) which was diluted from 500× concentrated SyntheChol® NSO Supplement (S5442, Sigma). After 4 days viral transduction, cell were replated on matrigel-coated 6-well plates as cell number 27, 000 per well. 2 days later for cell attachment, cholesterol were supplied continually during reprogramming procedure. To better evaluate cholesterol effect to iPSC generation, serum-free defined E8 medium (containing 250 μM sodium butyrate, 50 μg/ml Vitamin C) was used for iPSC generation.
In addition, cholesterol can boost the reprogramming efficiency (total AP positive, 7.62-fold) with OSKM 4 factors.

[3] = test system: PODXL overexpressing hESCs; test: Inhibitor treatment of PODXL overexpressing hESCs (Alamar blue, ALP activity); details: PODXL overexpressed one day, then inhibitor treatment for 3 days
Experimental: as §4

HUES6 hESCs = test: Alkaline phosphatase activity after cholesterol inhibitor treatment; details: treatment for 3 days
Description: as §1

Compound: CCC(C)(C)C(=O)O[C@H]1C[C@@H](C)C=C2C=C[C@H](C)[C@H](CC[C@@H]3C[C@@H](O)CC(=O)O3)[C@H]21 [Simvastatin, (1S,3R,7S,8S,8aR)-1,2,3,7,8,8a-Hexahydro-3,7-dimethyl-8-[2-[(2R,4R)-tetrahydro-4-hydroxy-6-oxo-2H-pyran-2-yl]ethyl]-1-naphthalenyly-2,2-dimethyl butanoate]
- IC50 (IMR-90; Homo sapiens, IMR-90, IMR-90, no serum): 5.46 µM
- IC50 (IMR-90; Homo sapiens, IMR-90, IMR-90, serum): 4.13 µM
- IC50 (hNSC; Homo sapiens, 72 h): 31.2 µM
- hPSCs more sensitive than human neural stem cells (hNSCs) (hNSC): 568 fold
- IC50 (CRL-2097; Homo sapiens, CRL-2097, no serum): 4.35 µM
- IC50 (CRL-2097; Homo sapiens, CRL-2097, serum): 5.44 µM
- IC50 higher in primary fibroblasts than HUES6 (CRL-2097): 52 fold
- IC50 (H9; Homo sapiens): 0.02 µM
- IC50 (HUES6; Homo sapiens): 0.16 µM
- IC50 (hBMSC; Homo sapiens, 72 h): 8.97 µM
- hPSCs more sensitive than human bone marrow mesenchymal stem cells (hBMMSCs) (hBMSC): 163 fold
- IC50 (BJ-5Ta; Homo sapiens, no serum): 1.96 µM
- IC50 (BJ-5Ta; Homo sapiens, serum): 4.36 µM

Compound: CC(C)CCC[C@@H](C)[C@H]1CC[C@H]2[C@@H]3CC=C4C[C@@H](O)CC[C@]4(C)[C@H]3CC[C@]12C [cholesterol]
- relative cell number loss from PODXL knockdown ([1]; Alamar blue): prevent
- reduction in ALP activity from PODXL knockdown [1]: prevent
- apoptosis of the hPSCs (PODXL knockdown hESCs): substantially restored
- expression levels of c-MYC, TERT, HMGCR, PODXL, TRA-1-60 [2]: rescued
- reprogramming efficiency (total AP positive) (CRL2097): 7.62 fold

Compound: Methyl-β-cyclodextrin [MBCD]
- IC50 (IMR-90; IMR-90, no serum): 2640 µM
- IC50 (IMR-90; IMR-90, serum): 2810 µM
- IC50 (hNSC): 3020 µM
- hPSCs more sensitive than human neural stem cells (hNSCs) (hNSC): 2.44 fold
- IC50 (CRL-2097; CRL-2097, no serum): 2600 µM
- IC50 (CRL-2097; CRL-2097, serum): 3860 µM
- IC50 higher in primary fibroblasts than HUES6 (CRL-2097): 2 fold
- IC50 (H9): 1130 µM
- IC50 (HUES6): 1350 µM
- hPSCs more sensitive than human bone marrow mesenchymal stem cells (hBMMSCs) (hBMSC): 2.65 fold
- IC50 (hBMSC): 3290 µM
- IC50 (BJ-5Ta; no serum): 2340 µM
- IC50 (BJ-5Ta; serum): 3770 µM
- upregulation in self-renewal (cell growth and ALP activity) by PODXL overexpression [3]: inhibited
- Alkaline phosphatase activities (stem cell marker expression) (HUES6 hESCs): hampered
